Broadly, the half-life is how long it takes for the measured level to halve. What is called bioavailability is dose-corrected exposure relative to a reference, in per cent. Broadly, the Cmax is the peak of the concentration-time curve.

The values below come from ChEMBL document CHEMBL1141472, “Design, synthesis, and biological evaluation of 8-biarylquinolines: a novel class of PDE4 inhibitors” (Bioorg Med Chem Lett, 2008).

Molecules are shown by their SMILES.

What all share (conditions): in vivo
A short description of data set [1]: (§1) Half life in rat. Format: ADME, organism-based.
The nature of data set [2]: Oral bioavailability in rat. Format: ADME, organism-based.
The nature of data set [3]: Cmax in squirrel monkey at 10 mg/kg. Format: ADME, organism-based, Saimiri sciureus. The arrangement: dose 10 mg/kg.
Data set [4] can be described thus: Cmax in squirrel monkey at 3 mg/kg. Format: ADME, organism-based, Saimiri sciureus. The arrangement: dose 3 mg/kg.
For data set [5], the species on record is Rattus norvegicus. The description is as §1. Format: ADME, organism-based.

The molecule `CC(C)(c1cc(-c2cccc(-c3ccc[n+]([O-])c3)c2)c2ncccc2c1)S(C)(=O)=O` had a half-life in data set [1] of 72 min. In data set [2], this molecule came in with a bioavailability of 76%.

For `Cc1ccc(-c2cccc(-c3cc(C(C)(C)S(C)(=O)=O)cc4cccnc34)c2)c[n+]1[O-]`, the half-life in data set [1] is 72 min. In addition, in data set [2], the bioavailability turned out to be 83%.

For `CC(C)(c1cc(-c2cccc(-c3ccc(CO)[n+]([O-])c3)c2)c2ncccc2c1)S(C)(=O)=O`, the half-life in data set [1] was 102 min. The molecule further yielded a bioavailability in data set [2] of 10%.

`CC(C)NC(=O)Nc1ccc(-c2cccc(-c3cc(C(C)(C)S(C)(=O)=O)cc4cccnc34)c2)c[n+]1[O-]` had a half-life in data set [1] of 42 min. In data set [2], this molecule gave a bioavailability of 11%.

In data set [1], `CC(=O)Nc1ccc(-c2cccc(-c3cc(C(C)(C)S(C)(=O)=O)cc4cccnc34)c2)c[n+]1[O-]` gave a half-life of 12 min. Further, the bioavailability in data set [2] stood at 47%.

In the case of `CC(C)(O)c1cc(-c2cccc(-c3cc(C(C)(C)S(C)(=O)=O)cc4cccnc34)c2)c[n+]([O-])c1`, the half-life in data set [1] is less than 60 min. Moreover, in data set [2], the bioavailability was 0%.

`CC(C)(c1cc(-c2cccc(-c3cc(C(=O)NC4CC4)c[n+]([O-])c3)c2)c2ncccc2c1)S(C)(=O)=O` came in with a half-life in data set [1] of less than 60 min. For the same molecule, the bioavailability in data set [2] amounted to 0%.

Molecule `CC(C)(c1cc(-c2cccc(-c3ccc(C(=O)O)cc3)c2)c2ncccc2c1)S(C)(=O)=O` gave a half-life in data set [1] of 120 min. In data set [2], this molecule had a bioavailability of 54%.

Take `CC(C)(c1cc(-c2cccc(-c3ccc(CCC(=O)O)cc3)c2)c2ncccc2c1)S(C)(=O)=O`: the half-life in data set [1] is 60 min. In data set [2], this molecule came in with a bioavailability of 24%.

In the case of `CC(C)(CC(=O)O)c1ccc(-c2cccc(-c3cc(C(C)(C)S(C)(=O)=O)cc4cccnc34)c2)cc1`, in data set [1], the half-life was 120 min. The molecule further displayed a bioavailability in data set [2] of 100%.

`Cc1noc(/C(=C/c2cccc(-c3cc(C(C)(C)S(C)(=O)=O)cc4cccnc34)c2)c2ccc(S(C)(=O)=O)cc2)n1` gave a Cmax in data set [3] of 3.8 µM.

Consider `CC(C)(c1cc(-c2cccc(-c3ccc(C(=O)NC4CC4)[n+]([O-])c3)c2)c2ncccc2c1)S(C)(=O)=O`, for which the half-life in data set [1] is 390 min. Besides, the bioavailability in data set [2] came out at 100%.

In data set [1], `CC(C)(c1cc(-c2cccc(-c3ccc(CC(=O)O)cc3)c2)c2ncccc2c1)S(C)(=O)=O` showed a half-life of 18 min. The molecule further had a bioavailability in data set [2] of 60%.

`CC(C)(O)c1ccc(-c2cccc(-c3cc(C(C)(C)S(C)(=O)=O)cc4cccnc34)c2)c[n+]1[O-]` showed a half-life in data set [1] of 90 min. Besides, the Cmax in data set [4] is 41 µM. Also, the bioavailability in data set [2] is 100%.

In data set [1], `CC(C)(c1cc(-c2cccc(-c3ccc(C4CC4C(=O)O)cc3)c2)c2ncccc2c1)S(C)(=O)=O` (single isomer, unassigned) gave a half-life of 120 min. Also, the highest level in data set [3] (Cmax) was 65 µM. Also, the bioavailability in data set [2] turned out to be 100%.

The molecule `CC(C)(c1cc(-c2cccc(-c3ccc(C4CC4C(=O)O)cc3)c2)c2ncccc2c1)S(C)(=O)=O` (single isomer, unassigned; enantiomer A) came in with a t1/2 in data set [5] of 2 h.
